In patent US7285687B2 (priority 2002, dated 2007):
Where two headings read alike, the source gives them in different places.

Assays:
male ICR mice [1] = assay: Suppression of spontaneous activity (SA) in mice, i.v.; assay type: in vivo, mouse; conditions: for ED50: Mus musculus, iv
Protocol: (§1) Male ICR mice (25-32 g), obtained from Harlan (Dublin, Va.), were housed in groups of five. All animals were kept in a temperature-controlled (20-22° C.) environment with a 12-hour light-dark cycle (lights on at 7 a.m.). Separate mice were used for testing each drug dose in the in vivo behavioral procedures. Brain tissue for binding studies was obtained from male Sprague-Dawley rats (150-200 g) purchased from Harlan Laboratories (Dublin, Va.).
(§2) Measurement of spontaneous activity in mice occurred in standard activity chambers interfaced with a Digiscan Animal Activity Monitor (Omnitech Electronics, Inc., Columbus, Ohio). A standard tail-flick apparatus and a digital thermometer (Fisher Scientific, Pittsburgh, Pa.) were used to measure antinociception and rectal temperature, respectively.
(§3) Resorcinols were synthesized in our labs (Organix, Inc., Woburn, Mass.) according to the procedure specified below and were suspended in a vehicle of absolute ethanol, Emulphor-620 (Rhone-Poulenc, Inc., Princeton, N.J.), and saline in a ratio of 1:1:18. Drugs were administered to the mice intravenously (i.v.) in the tail vein at a volume of 0.1 ml/10 g.
(§4) Prior to testing in the behavioral procedures, mice were acclimated to the experimental setting (ambient temperature 22-24° C.) overnight. Pre-injection control values were determined for rectal temperature and tail-flick latency (in sec). Five min after i.v. injection with drug or vehicle, mice were placed in individual activity chambers and spontaneous activity was measured for 10 min. […] Tail-flick latency was measured at 20 min post-injection. Maximum latency of 10 sec was used. Antinociception was calculated as percent of maximum possible effect {% MPE=[(test−control latency)/(10-control)]×100}. Control latencies typically ranged from 1.5 to 4.0 sec. At 30 min post-injection, rectal temperature was measured. This value was expressed as the difference between control temperature (before injection) and temperatures following drug administration (° C.). Different mice (n=5-6 per dose) were tested for each dose of each compound. Each mouse was tested in each of the 3 procedures.
(§5) Based on data obtained from numerous previous studies with cannabinoids, maximal cannabinoid effects in each procedure were estimated as follows: 90% inhibition of spontaneous activity, 100% MPE in the tail flick procedure, and −6° C. change in rectal temperature. ED50's were defined as the dose at which half maximal effect occurred. For drugs that produced one or more cannabinoid effect, ED50's were calculated separately using least-squares linear regression on the linear part of the dose-effect curve for each measure in the mouse tetrad, plotted against log10 transformation of the dose. For the purposes of potency comparison, potencies were expressed as μmol/kg.

male ICR mice [2] = assay: Tail-flick antinociception (TF, % MPE) in mice, i.v.; assay type: in vivo, mouse; conditions: for T.F. % effect at dose: Table 6
Protocol: as §1, §2, §3, §4, §5

CB1 receptor = target: T1, CB1 receptor (Rattus norvegicus, UniProt P20272); assay: CB1 binding procedure, displacement of [3H]CP 55,940 from rat whole-brain P2 membranes
T1 construct: whole brain was homogenized and centrifuged; from tissue; host or cells: whole brain of male Sprague-Dawley rats, P2 membrane fraction
T1 sequence (P20272 whole entry): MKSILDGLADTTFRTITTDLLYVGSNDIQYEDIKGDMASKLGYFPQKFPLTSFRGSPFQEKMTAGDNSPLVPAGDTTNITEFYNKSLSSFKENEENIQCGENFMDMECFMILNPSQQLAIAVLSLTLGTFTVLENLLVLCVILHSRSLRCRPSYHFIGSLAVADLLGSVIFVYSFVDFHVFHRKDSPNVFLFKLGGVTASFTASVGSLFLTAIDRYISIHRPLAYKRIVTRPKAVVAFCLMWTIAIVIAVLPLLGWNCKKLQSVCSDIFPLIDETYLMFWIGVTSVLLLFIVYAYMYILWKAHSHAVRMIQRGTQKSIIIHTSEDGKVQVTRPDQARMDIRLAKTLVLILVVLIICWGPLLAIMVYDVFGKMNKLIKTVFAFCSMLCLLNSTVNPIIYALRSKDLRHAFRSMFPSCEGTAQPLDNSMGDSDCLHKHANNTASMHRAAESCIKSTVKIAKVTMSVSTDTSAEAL
Protocol: as §1
The methods used for tissue preparation and binding have been described previously (Compton et al., 1993) and are similar to those described by Devane et al. (1988). All assays, as described briefly below, were performed in triplicate, and the results represent the combined data from three to six individual experiments.
Following decapitation and rapid removal of the brain, whole brain was homogenized and centrifuged. The resulting pellet was termed P1. The supernatant was saved and combined with the two subsequent supernatants obtained from washing of the P1 pellet. The combined supernatant fractions were centrifuged, resulting in the P2 pellet. After further incubation and centrifuging, this pellet was resuspended in assay buffer to a protein concentration of approximately 2 mg/ml. The membrane preparation was quickly frozen in a bath solution of dry ice and 2-methylbutane (Sigma Chemical Co., St. Louis, Mo.), then stored at −80° C. for no more than 2 weeks. Prior to performing a binding assay an aliquot of frozen membrane was rapidly thawed and protein values determined by the method of Bradford (1976).
Binding was initiated by the addition of 150•g of P2 membrane to test tubes containing 1 nM of [^3H] CP 55,940 (79 Ci/mmol) and a sufficient quantity of buffer to bring the total incubation volume to 1 ml. […] Following incubation at 30° C. for 1 hr, binding was terminated by addition of ice cold buffer and vacuum filtration through pretreated filters in a 12-well sampling manifold (Millipore, Bedford, Mass.). After washing, filters were placed into plastic scintillation vials (Packard, Downer Grove, Ill.) and shaken. The quantity of radioactivity present was determined by liquid scintillation spectrometry.
(§6) In addition, multiple linear regression was used to calculate the overall degree of relationship between CB1 binding affinity and potency in the mouse measures for all active cannabinoids. […] Ki values for CB1 and CB2 binding were obtained from Scatchard displacement analysis as determined via EBDA program of the KELL software package (Biosoft, Milltown, N.J.).

CB2 receptor = target: T2, CB2 receptor (Homo sapiens, UniProt P34972); assay: CB2 binding procedure, displacement of [3H]CP-55,940 from membranes of transfected CHO cells; conditions: for CB1/CB2: ratio of CB1 Ki to CB2 Ki
T2 construct: expressed in transfected cells
T2 sequence (P34972 whole entry): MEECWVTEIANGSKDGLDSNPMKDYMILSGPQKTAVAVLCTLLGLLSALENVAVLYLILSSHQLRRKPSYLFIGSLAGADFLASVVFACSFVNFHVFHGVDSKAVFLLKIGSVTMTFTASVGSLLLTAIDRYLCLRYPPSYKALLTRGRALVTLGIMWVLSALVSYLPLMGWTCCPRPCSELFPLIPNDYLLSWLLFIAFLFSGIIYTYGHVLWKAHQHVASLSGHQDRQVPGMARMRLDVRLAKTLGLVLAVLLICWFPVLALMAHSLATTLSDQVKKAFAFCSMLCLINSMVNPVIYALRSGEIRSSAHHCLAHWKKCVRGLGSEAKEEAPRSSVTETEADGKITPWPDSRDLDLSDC
Protocol: Membranes for CB2 binding were obtained from CHO cells. The transfected cell line was maintained in Dublecco's Modified Eagle Medium (Gibco BRL, Grand Island, N.Y.) with 10% fetal clone II (HyClone Laboratories, Inc., Logan, Utah) plus 0.3 to 0.5 mg/ml G418 (to maintain selective pressure) under 5% CO2 at 37% C. Cells were harvested with 1 mM EDTA in phosphate-buffered saline and were centrifuged at 1000×g for 5 min at 4% C. The supernatant was saved and the P1 pellet was resuspended in centrifugation buffer. Homogenization and centrifugation were repeated twice and the combined supernatant fractions were centrifuged at 40,000×g for 30 min at 4% C. The P2 pellet was resuspended in centrifugation buffer 2 (Tris HCl, 50 mM; EDTA, 1 mM; and MgCl2, 3 mM, pH 7.4) to a protein concentration of approximately 2 mg/ml. Protein concentrations were determined by the method of Bradford (1976) using Bio-Rad Protein Assay (Bio-Rad, Richmond, Calif.) and BSA standards (fatty acid free, Sigma Chemical Co., St. Louis, Mo.). The membrane preparation was divided into amounts convenient for binding assays and frozen rapidly in dry ice and stored at −80% C.
Binding was initiated by the addition of 50•g of quickly thawed P2 membranes to test tubes containing [^3H]CP-55,940 (final reaction concentration 0.5 nM), an appropriate concentration of unlabeled CP-55,940 or test drug, and sufficient quantity of assay buffer (50 mM Tris-HCl, 1 mM EDTA, 3 mM MgCl2, 5 mg/ml bovine serum albumin, pH 7.4) to bring the total incubation volume to 0.5 ml. Concentration of [^3H]CP-55,940 in saturation studies ranged from 50 to 10,000 pM. […] CP-55,940 and all cannabinoid analogs were-prepared by suspension in assay buffer from a 1 mg/ml ethanolic stock without evaporation of the ethanol (final concentration of no more than 0.4%). In competition studies, analog concentrations ranged from 0.1 nM to 10•M. After incubation at […] for 1 hr, binding was terminated by the addition of 2 ml of ice-cold wash buffer (50 mM Tris-HCl and 1 mg/ml BSA) and vacuum filtration through pre-treated filters in a 12-well sampling manifold (Millipore, Bedford, Mass.). Reaction vessels were washed once with 2 ml of ice-cold wash buffer. Filters were placed into 7-ml plastic scintillation vials (RPI Corp., Mount Prospect, Ill.) with 4 ml of Budget-Solve (RPI Corp.). After shaking for 30 min, the radioactivity present was determined by liquid scintillation spectrometry. Three reaction vessels were used for each drug concentration in each assay. The results represent the combined data of three independent experiments. All assays were performed in siliconized test tubes, which were prepared by air drying (12 hr) inverted borosilicate tubes after two rinses with a 0.1% solution of AquaSil (Pierce, Rockford, Ill.). The GF/C glass-fiber filters (2.4 cm, Baxter, McGaw Park, Ill.) were pre-treated in a 0.1% solution of pH 7.4 polyethylenimine (Sigma Chemical Co.) for at least 6 hr.
as §6

male ICR mice [3] = assay: Change in rectal temperature (RT) in mice, i.v.; assay type: in vivo, mouse; conditions: for ED50: Mus musculus, iv
Protocol: as §1, §2, §3, §4, §5

male ICR mice [4] = assay: Lethality noted in the mouse behavioral procedures, i.v.; assay type: in vivo; conditions: @ 30 mg/kg, Table 6
Protocol: as §1
Resorcinols were synthesized in our labs (Organix, Inc., Woburn, Mass.) according to the procedure specified below and were suspended in a vehicle of absolute ethanol, Emulphor-620 (Rhone-Poulenc, Inc., Princeton, N.J.), and saline in a ratio of 1:1:18. […]
Prior to testing in the behavioral procedures, mice were acclimated to the experimental setting (ambient temperature 22-24° C.) overnight. Pre-injection control values were determined for rectal temperature and tail-flick latency (in sec). Five min after i.v. injection with drug or vehicle, mice were placed in individual activity chambers and spontaneous activity was measured for 10 min. […] Tail-flick latency was measured at 20 min post-injection. […] Antinociception was calculated as percent of maximum possible effect {% MPE=[(test−control latency)/(10-control)]×100}. […] At 30 min post-injection, rectal temperature was measured. […]

[5] = 95% confidence limits in parentheses, read-out: ED50 RT (rectal temperature)

Question: For `C=C(C)[C@@H]1CCC(C)=CC1c1c(O)cc(C)cc1O` (single isomer, unassigned; (-)) [O-1821, (-)-2-(3-3,4-trans-p-menthadien-(1,8)-yl)-orcinol], which “S.A. % effect at dose” value (male ICR mice [1]; @ 30 mg/kg, Table 6) is on record?
Answer: 0 @ 30%

Question: And the inhibition in vivo at 30 mg/kg (male ICR mice [2]; Mus musculus, iv, @ 30 mg/kg, Table 6, read-out: T.F. % effect at dose)?
Answer: 3%

Question: And the Ki (CB1 receptor; Table 6, read-out: CB1 KI)?
Answer: > 10000 nM

Question: What does the source list for `CCCCCCC(C)(C)c1cc(O)c(C2CCCCCC2)c(O)c1` [O-1656, 2-Cycloheptyl-5-(1′,1′-dimethyl-heptyl)-resorcinol]?
Answer: ED50 (male ICR mice [1]; 95% confidence limits in parentheses, read-out: ED50 SA (suppression of spontaneous activity)): 1.5 µmol/kg; ED50 (male ICR mice [1]; Table 6, read-out: S.A. ED50): 0.53 mg/kg; Ki (CB2 receptor; Table 6, read-out: CB2 KI): 2.12 ± 0.25 nM; Ki (CB2 receptor; mean ± SEM, [3H]CP-55,940, transfected CHO cell membranes, read-out: Ki(nM) CB2): 2 ± 0.2 nM; CB1/CB2 (CB2 receptor): 9; ED50 (male ICR mice [2]; Mus musculus, iv, 95% confidence limits in parentheses, read-out: ED50 TF (antinociception in tail flick assay)): 1.2 µmol/kg; ED50 (male ICR mice [2]; Mus musculus, iv, Table 6, read-out: T.F. ED50): 0.39 mg/kg; ED50 (male ICR mice [3]; [5]): 0.6 µmol/kg; ED50 (male ICR mice [3]; Table 6, read-out: R.T. ED50): 0.21 mg/kg; Ki (CB1 receptor; Table 6, read-out: CB1 KI): 17.8 ± 1.4 nM; Ki (CB1 receptor; mean ± SEM, [3H]CP 55,940, rat brain membranes, read-out: Ki(nM) CB1): 18 ± 1 nM

Question: With `CCCCCCC(C)(C)c1cc(O)c(C2CCN(C)CC2)c(O)c1` [O-1662, 2-(1-Methylpiperidin-4-yl)-5-(1′,1′-dimethylheptyl)-resorcinol] as the molecule, how does the “S.A. % effect at dose (stim)” value (male ICR mice [1]; stimulation, @ 10 mg/kg, Table 6) read?
Answer: 77% stim@ 10

Question: What about the “T.F. % effect at dose” value (male ICR mice [2]; @ 10 mg/kg) of the same molecule?
Answer: 7 @ 10%

Question: And the “R.T. effect at dose” value (male ICR mice [3]; @ 10 mg/kg, Table 6)?
Answer: 1 °C

Question: What about the Lethality at dose (male ICR mice [4]) of the same molecule?
Answer: Lethal

Question: For `CCCCCCC(C)(C)c1ccc(-c2cc(C)ccc2C(C)C)c(O)c1` [O-1376, 3-1′,1′-Dimethylhepty-6-(2-isopropyl-5-methylphenyl)phenol], which Ki (CB2 receptor; Table 6, read-out: CB2 KI) is on record?
Answer: 2.63 ± 0.36 nM

Question: And the CB1/CB2 (CB2 receptor)?
Answer: 11

Question: What about the ED50 (male ICR mice [3]; [5]) of the same molecule?
Answer: 23 µmol/kg

Question: How did the “T.F. % effect at dose” value (male ICR mice [2]; @ 30 mg/kg) turn out when `CCCCCCc1ccc(O)c(C2CCCCC2)c1O` [O-2010, 2-Cyclohexyl-4-hexyl resorcinol] was run?
Answer: 9.0%@ 30

Question: With `COc1cc(C)cc(OC)c1C1CCCCC1` [O-2299, 2-Cyclohexyl-1,3-dimethoxy-5-methylbenzene] as the molecule, how does the Ki (CB2 receptor; Table 6, read-out: CB2 KI) read?
Answer: > 10000 nM

Question: What about the Ki (CB1 receptor; Table 6, read-out: CB1 KI) of the same molecule?
Answer: > 10000 nM
